pIC50: −log10 of the molar value. Entries after “also recorded” stand apart in the source; their conditions may differ.
What was measured:
[1] = target: T1, inositol monophosphatase (IMPase) (Bos taurus, UniProt P20456); assay: Inhibition of inositol monophosphatase (IMPase) enzyme activity, liberated phosphate by molybdate coloration; format: biochemical, animal; settings: 4 mM 2-glycerolphosphate, 5 μg/ml IMPase, 50 mM Tris-HCl pH 7.5, 2 mM magnesium chloride, 0.1 mM EGTA, 30 minutes; read-out: IC50 (molar amount of inhibitor required to inhibit the enzyme activity by 50%)
T1 sequence (P20456 1-277): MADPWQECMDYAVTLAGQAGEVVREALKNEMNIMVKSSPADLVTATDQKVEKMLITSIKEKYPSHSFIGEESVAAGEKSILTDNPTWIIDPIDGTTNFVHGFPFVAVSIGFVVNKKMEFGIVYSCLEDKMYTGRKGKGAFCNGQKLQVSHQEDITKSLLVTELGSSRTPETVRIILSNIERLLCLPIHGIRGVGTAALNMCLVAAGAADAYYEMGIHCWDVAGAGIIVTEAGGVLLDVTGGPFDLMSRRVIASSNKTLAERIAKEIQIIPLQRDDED
Source text: For determining the activity of the compounds of formula I, IMPase with a purity higher than 90% as judged by SDS-PAGE (sodium dodecyl sulphate polyacrylamide gel electrophoresis) is purified as described in P. D. Pelton and A. J. Ganzhorn, Journal Biolog. Chem., 267, 1992, pp. 5916-5920. The enzyme can be purified from animal brain or from recombinant E. coli strains expressing animal IMPase. Although crude enzyme preparations can also be used, it is preferable to use purified enzyme. The purified enzyme routinely has a specific activity of 25 μmol of Pi/min/mg of protein as determined in a standard assay (P. V. Attwood et al., Biochem. Jour., 1988, 253, pp. 387-394) with 4 mM 2-glycerolphosphate as substrate.
The enzyme activity may be determined according to A. J. Ganzhorn and M. C. Chanal, Biochem., 1990, 29; the reaction mixture contains 50 mM Tris-HCl, pH 7.5, 2 mM magnesium chloride and 0.1 mM EGTA. Then, 5 μg/ml of enzyme IMPase and 4 mM of 2-glycerolphosphate substrate are added to the reaction mixture; alternatively, it is also possible to add the substrate directly into the reaction mixture, before adding the enzyme.
The reaction is considered terminated after 30 minutes from the addition of the substrate or the enzyme (depending on which one is added later); the liberated phosphate is determined by molybdate coloration (P. V. Attwood et al., Biochem. Jour., 1988, 253, pp. 387-394) at 350 nm with a Shimadzu spectrophotometer UV 2100.
The enzyme reaction is performed either in the absence or in the presence of various concentrations of the compounds of formula I, to determine the molar amount of inhibitor required to inhibit the enzyme activity by 50% (IC50).

[2] = cited from earlier work
bipolar disorder / mania = settings: cited from earlier work
inositol monophosphatase = settings: cited from earlier work

Row | Compound | pIC50 [1] | structural lesions in kidney ([2]; after chronic lithium treatment, especially in patients who have experienced lithium toxicity) | adverse effects common to lithium therapy ([2]; lithium therapy) | occurrence of polyuria-polydipsia syndrome ([2]; lithium treatment) | time it takes to exert anti-manic effect (bipolar disorder / mania; acute bipolar disorder) | anti-manic and anti-depressive therapeutic effect (bipolar disorder / mania; preferably employed as lithium carbonate) | inhibition of inositol monophosphatase activity (inositol monophosphatase)
1 | O=C1OC(=O)c2c1cc(O)c(O)c(O)c2=O [puberulonic acid, 3,4,6-trihydroxy-5-oxo-1,3,6-cycloheptatriene-1,7-dicarboxylic acid anhydride] | ~5.40 | – | – | – | – | – | –
2 | O=C(O)c1cc(O)c(O)c(=O)c(O)c1 [puberulic acid, 3,4,6-trihydroxy-5-oxo-1,3,6-cycloheptatriene-1-carboxylic acid] | ~4.40 | – | – | – | – | – | –
3 | lithium | ~2.90 | interstitial fibrosis, tubular atrophy and glomerular sclerosis | tremor, weight gain, diarrhea and skin rash; also recorded: transient leukocytosis; also recorded: can cause patients with a borderline thyroid reserve to become clinically hypothyroid; also recorded: can decompensate cardiac status due to shifts in fluids and electrolytes | up to 60 % of treated patients | 7 to 10 days | alleviating manic symptoms, normalizing the mood of manic patients | inhibits the activity of said enzyme
